Values quoted from earlier work in patent publication US20110092560A1, “TOPICAL COMPOSITION FOR CONTROLLING ECTOPARASITES IN DOGS AND CATS” (CEVA SANTE ANIMALE SA, priority 2008, published 2011).

What was measured:
[1] = in vivo
[2] = mouse, in vivo, po

N#Cc1nn(-c2c(Cl)cc(C(F)(F)F)cc2Cl)c(N)c1[S+]([O-])C(F)(F)F (centres unmarked) [fipronil, Fipronil]
carcinogenic, teratogenic or mutagenic potential [1]: not carcinogenic, teratogenic or mutagenic | metabolites eliminated in the faeces [2]: 45-75% | metabolites eliminated in the urine [2]: 5-25% | plasma half-life [2]: 149 to 200 h | tissues in which residues were found [2]: fat, the adrenal glands, pancreas, skin, liver, kidney, and muscle
